System: Plasmodium falciparum
Assay: Antiplasmodial activity against Plasmodium falciparum NF54 infected in human erythrocytes measured after 48 hrs by [3H]hypoxanthine incorporation assay
Type: functional, organism-based
Conditions: NF54, Erythrocyte

Compound FC1CN(CCc2ccc(-c3noc(C(F)(F)F)n3)cc2)CCC1Nc1nc2ccccc2[nH]1 (stereo unspecified) has an IC50 of 219 nM.

— ChEMBL document CHEMBL5335864 (ACS Med Chem Lett, 2024)
